According to ChEMBL document CHEMBL5338745, “Factor XIa Inhibitors in Anticoagulation Therapy: Recent Advances and Perspectives” (J Med Chem, 2023):
Each block holds one molecule with its values, some of them ahead of it.

How the values were obtained:
Coagulation factor XI [1] = biological target: T1, Coagulation factor XI (Homo sapiens, UniProt P03951); experiment: Inhibition of FXIa (unknown origin)
Plasma kallikrein = Plasma kallikrein (Homo sapiens, UniProt P03952)
[2] = Metabolic stability in dog liver microsomes assessed as half life; type: ADME, Canis lupus familiaris, Microsome
[3] = Metabolic stability in mouse liver microsomes assessed as half life; type: ADME, Microsome
Plasma [4] = experiment: Anticoagulant activity in human plasma assessed as concentration required to double the activated partial thromboplastin time; type: functional
[5] = Oral bioavailability in Sprague-Dawley rat incubated upto 24 hrs by LC-MS/MS analysis; type: ADME, organism-based; details: in vivo
[6] = Half life in Sprague-Dawley rat at 1 mg/kg, iv; type: ADME, organism-based; details: in vivo
Plasma [7] = experiment: Anticoagulant activity in human plasma assessed as concentration required to double the prothrombin time; type: functional
Coagulation factor XI [8] = biological target: T1, Coagulation factor XI; experiment: Inhibition of FXIa (unknown origin) relative to control; details: concentration not given here
[9] = Half life in mouse; type: ADME, organism-based; details: in vivo
[10] = Selectivity index, ratio IC50 for FXIa (unknown origin) to IC50 for FD (unknown origin)
[11] = Half life in Sprague-Dawley rat at 1 mg/kg, iv by LC-MS/MS analysis; type: ADME, organism-based; details: in vivo
[12] = Oral bioavailability in Sprague-Dawley rat at 2 mg/kg by LC-MS/MS analysis; type: ADME, organism-based; details: in vivo
[13] = Oral bioavailability in Sprague-Dawley rat at 5 to 10 mg/kg by LC-MS/MS analysis; type: ADME, organism-based; details: in vivo, dose 5-10 mg/kg
[14] = Clearance in Sprague-Dawley rat at 5 to 10 mg/kg, po by LC-MS/MS analysis; type: ADME, organism-based; details: in vivo, dose 5-10 mg/kg
[15] = Half life in Sprague-Dawley rat at 5 to 10 mg/kg, po by LC-MS/MS analysis; type: ADME, organism-based; details: in vivo, dose 5-10 mg/kg
Cathepsin G = biological target: T2, Cathepsin G (Homo sapiens, UniProt P08311); experiment: Inhibition of human cathepsin G
T2 sequence (P08311 whole entry): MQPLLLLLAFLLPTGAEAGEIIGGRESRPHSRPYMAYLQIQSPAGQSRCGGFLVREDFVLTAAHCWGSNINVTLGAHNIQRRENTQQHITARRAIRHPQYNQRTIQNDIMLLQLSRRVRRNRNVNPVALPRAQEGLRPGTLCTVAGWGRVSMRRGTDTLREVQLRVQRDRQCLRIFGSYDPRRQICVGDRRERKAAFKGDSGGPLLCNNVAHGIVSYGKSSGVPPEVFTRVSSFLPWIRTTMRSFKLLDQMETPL

Neutrophil elastase = biological target: T3, Neutrophil elastase (Homo sapiens, UniProt P08246); experiment: Inhibition of human Neutrophil elastase
T3 sequence (P08246 whole entry): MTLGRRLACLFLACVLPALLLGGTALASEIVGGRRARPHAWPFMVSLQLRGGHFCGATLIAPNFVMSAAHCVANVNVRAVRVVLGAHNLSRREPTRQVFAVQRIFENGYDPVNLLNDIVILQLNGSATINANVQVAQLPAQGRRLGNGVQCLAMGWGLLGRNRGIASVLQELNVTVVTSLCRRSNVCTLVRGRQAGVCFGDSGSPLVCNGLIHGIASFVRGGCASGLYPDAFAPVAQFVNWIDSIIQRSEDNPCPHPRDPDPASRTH

[16] = Oral bioavailability in rat at 1.5 mg/kg; type: ADME, organism-based; details: in vivo
Plasma [17] = experiment: Anticoagulant activity in human plasma assessed as concentration required to 1.5 times activation of partial thromboplastin time; type: functional
[18] = Clearance in rat at 1 mg/kg, iv; type: ADME, organism-based; details: in vivo
[19] = Half life in cynomolgus monkey at 1 mg/kg, iv; type: ADME, organism-based, Macaca fascicularis; details: in vivo
[20] = Clearance in cynomolgus monkey at 1 mg/kg, iv; type: ADME, organism-based, Macaca fascicularis; details: in vivo
[21] = Oral bioavailability in cynomolgus monkey at 10 mg/kg, […]; type: ADME, organism-based, Macaca fascicularis; details: in vivo
Complement factor D = Complement factor D (Homo sapiens, UniProt P00746); experiment: Inhibition of FD (unknown origin)
[22] = Clearance in mouse; type: ADME, organism-based; details: in vivo
[23] = Oral bioavailability in mouse; type: ADME, organism-based; details: in vivo

Chain of Plasma kallikrein (P03952 20-390 limits assumed): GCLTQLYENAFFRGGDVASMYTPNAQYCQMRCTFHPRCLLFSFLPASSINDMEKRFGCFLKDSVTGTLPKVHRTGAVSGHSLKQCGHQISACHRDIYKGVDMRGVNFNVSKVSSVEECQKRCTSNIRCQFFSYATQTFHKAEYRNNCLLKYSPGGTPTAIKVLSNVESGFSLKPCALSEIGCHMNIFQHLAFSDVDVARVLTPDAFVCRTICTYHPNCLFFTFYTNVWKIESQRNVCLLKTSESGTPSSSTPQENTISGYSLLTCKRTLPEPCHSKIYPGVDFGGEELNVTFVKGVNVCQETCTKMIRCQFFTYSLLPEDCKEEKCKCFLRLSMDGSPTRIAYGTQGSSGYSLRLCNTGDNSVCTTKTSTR
Chain of Plasma kallikrein (P03952 391-638 limits assumed): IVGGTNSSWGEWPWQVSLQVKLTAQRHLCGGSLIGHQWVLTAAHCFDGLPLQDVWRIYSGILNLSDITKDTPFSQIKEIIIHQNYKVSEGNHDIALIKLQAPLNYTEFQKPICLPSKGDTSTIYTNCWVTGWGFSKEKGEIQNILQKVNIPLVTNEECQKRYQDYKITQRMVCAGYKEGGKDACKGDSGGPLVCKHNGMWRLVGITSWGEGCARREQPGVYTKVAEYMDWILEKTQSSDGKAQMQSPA
T1 sequence (P03951 19-387 limits assumed): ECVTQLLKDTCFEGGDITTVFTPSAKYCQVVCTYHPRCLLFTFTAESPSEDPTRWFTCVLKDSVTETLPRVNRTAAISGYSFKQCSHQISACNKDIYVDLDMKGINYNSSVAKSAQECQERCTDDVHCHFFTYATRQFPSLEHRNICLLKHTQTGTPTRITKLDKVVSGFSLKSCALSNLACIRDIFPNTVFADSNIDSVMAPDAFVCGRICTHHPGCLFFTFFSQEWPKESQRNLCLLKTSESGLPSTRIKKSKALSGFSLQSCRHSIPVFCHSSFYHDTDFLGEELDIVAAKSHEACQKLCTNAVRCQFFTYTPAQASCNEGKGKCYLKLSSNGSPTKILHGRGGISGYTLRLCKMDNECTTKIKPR
T1 sequence (P03951 388-625 limits assumed): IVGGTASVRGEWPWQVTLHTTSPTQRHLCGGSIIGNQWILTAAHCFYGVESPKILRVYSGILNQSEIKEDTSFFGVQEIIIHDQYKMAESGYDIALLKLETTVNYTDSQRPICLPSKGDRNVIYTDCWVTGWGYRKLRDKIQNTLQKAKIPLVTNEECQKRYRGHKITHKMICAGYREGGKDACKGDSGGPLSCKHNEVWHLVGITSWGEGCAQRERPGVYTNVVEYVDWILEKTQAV
Chain of Complement factor D (P00746 whole entry): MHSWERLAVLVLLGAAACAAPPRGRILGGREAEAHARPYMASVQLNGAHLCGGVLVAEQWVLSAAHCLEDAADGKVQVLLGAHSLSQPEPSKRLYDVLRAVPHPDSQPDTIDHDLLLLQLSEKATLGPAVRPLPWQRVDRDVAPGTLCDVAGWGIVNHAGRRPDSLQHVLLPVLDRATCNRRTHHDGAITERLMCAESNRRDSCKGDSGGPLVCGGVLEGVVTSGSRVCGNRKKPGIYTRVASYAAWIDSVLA

Compound: COCC[C@@H](C(=O)Nc1ccc2nn(C)cc2c1)N1CC(=O)N(c2cc(Cl)ccc2-n2cc(Cl)nn2)CC1=O
half-life [2]: > 15 h
half-life [3]: > 5 h
EC (Plasma [4]): 5.3 µM
bioavailability [5]: 72.5%
half-life [6]: 1.5 h

Compound: Nc1ccc(-c2[nH]c(Cn3c4c(c(-c5cc(Cl)ccc5-n5cnnn5)cc3=O)C(=O)CC4)nc2F)c(F)n1
IC50 (Coagulation factor XI [1]): 0.32 nM

Compound: CC(C)c1cc(COc2ccccc2CC(=O)O)cc(-c2ccc3c(c2)[C@H](N)CO3)c1
EC (Plasma [7]): 9.9 µM
EC (Plasma [4]): 2.2 µM

Compound: Cc1ccc(C(=O)Nc2ccc(CP(=O)(O)O)cc2CP(=O)(O)O)cc1NC(=O)c1cccc(NC(=O)Nc2cccc(C(=O)Nc3cc(C(=O)Nc4ccc(CP(=O)(O)O)cc4CP(=O)(O)O)ccc3C)c2)c1
inhibition (Coagulation factor XI [8]): 68%

Compound: Nc1ccc(-c2nc(F)c([C@@H]3[C@H]4C[C@H]4c4cc(-c5cc(Cl)ccc5-n5cnnn5)cc(=O)n43)[nH]2)c(F)n1
IC50 (Coagulation factor XI [1]): 3.3 nM
half-life [11]: 1.6 h
bioavailability [12]: 25.3%

Compound: O=C(Nc1ccc(C(=O)Nc2ccc(C(=O)Nc3ccc(OS(=O)(=O)O)c4cc(OS(=O)(=O)O)cc(OS(=O)(=O)O)c34)cc2)cc1)Nc1ccc(C(=O)Nc2ccc(C(=O)Nc3ccc(OS(=O)(=O)O)c4cc(OS(=O)(=O)O)cc(OS(=O)(=O)O)c34)cc2)cc1
IC50 (Coagulation factor XI [1]): 4600 nM
IC50 (Cathepsin G): 570 nM
IC50 (Neutrophil elastase): 220 nM

Compound: [2H]C([2H])([2H])n1ncc2c1-c1ccnc(c1)[C@@H](c1coc(-c3cc(Cl)ccc3-n3cc(Cl)nn3)cc1=O)CCC[C@@H](C)C(=O)N2
IC50 (Coagulation factor XI [1]): 6.1 nM
half-life [19]: 1.05 h
EC (Plasma [4]): 2.7 µM
clearance [20]: 8.6 mL/min/kg
bioavailability [21]: 36.8%

Compound: O=C(OC[C@H]1O[C@@H](OC(=O)c2cc(OS(=O)(=O)O)cc(OS(=O)(=O)O)c2)[C@H](OC(=O)c2cc(OS(=O)(=O)O)cc(OS(=O)(=O)O)c2)[C@@H](OC(=O)c2cc(OS(=O)(=O)O)cc(OS(=O)(=O)O)c2)[C@@H]1OC(=O)c1cc(OS(=O)(=O)O)cc(OS(=O)(=O)O)c1)c1cc(OS(=O)(=O)O)cc(OS(=O)(=O)O)c1
IC50 (Coagulation factor XI [1]): 1400 nM

Compound: Nc1ccc(-c2cnc([C@H](CC3CC3)c3ccc(-c4cc(Cl)ccc4-n4cnnn4)c[n+]3[O-])[nH]2)c(Cl)n1
IC50 (Coagulation factor XI [1]): 0.32 nM
IC50 (Plasma kallikrein): 80 nM

Compound: Nc1ccc(-c2nc([C@H]3CCc4cc(-c5cc(Cl)ccc5-n5cnnn5)cc(=O)n43)c(F)[nH]2)c(F)n1 [ONO-7684]
Ki (Coagulation factor XI [1]): 2 nM

Now from value to molecule, other results behind:

IC50 (Coagulation factor XI [1]): 1.7 nM
IC50 (Plasma kallikrein): 60 nM
Compound: C[C@H]1COc2cn([C@@H](CC3CCCCO3)C(=O)Nc3ccc(C(N)=O)cc3)c(=O)cc2-c2c(ccc(Cl)c2F)C1 (some centres not stated)

half-life [9]: 9 h
Ratio IC50 [10]: 700
Compound: CC(C)c1cc(CCN2CCc3cccc(C(=O)O)c32)cc(-c2ccc3c(c2)[C@H](N)CO3)c1

IC50 (Coagulation factor XI [1]): 1.73 nM
Compound: O=C(O)c1ccc(NC(=O)[C@H](Cc2ccccc2)N2CCC(c3cc(Cl)ccc3-n3cc(Cl)nn3)=CC2=O)cc1

IC50 (Coagulation factor XI [1]): 1.8 nM
IC50 (Plasma kallikrein): 13 nM
bioavailability [13]: 53.4%
CL/F [14]: 19.6 mL/min/kg
half-life [15]: 3.25 h
Compound: O=c1cc(-c2c(-n3cnnn3)ccc(Cl)c2F)cc2n1[C@H](c1ccc(-c3ccnc(CO)c3F)[nH]1)CC2

bioavailability [16]: 89%
clearance [18]: 1.9 mL/min/kg
Compound: O=C(O)c1ccc(NC(=O)[C@H](CC2CC2)c2ccc(-c3c(C(F)F)ccc(Cl)c3F)c[n+]2[O-])cc1 (mixture of isomers)
EC (Plasma [17]): 0.61 µM

IC50 (Coagulation factor XI [1]): 0.4 nM
half-life [9]: 3.73 h
IC50 (Plasma kallikrein): 1 nM
IC50 (Complement factor D): > 5000 nM
clearance [22]: 11 mL/min/kg
bioavailability [23]: 100%
Ratio IC50 [10]: 10000
Compound: CC(C)c1cc(-c2ccc3c(c2)[C@H](N)CO3)cc([C@@H](O)CN2CCc3cccc(C(=O)O)c32)c1
EC (Plasma [7]): 28.7 µM
EC (Plasma [4]): 1.3 µM

IC50 (Coagulation factor XI [1]): 6.4 nM
Compound: O=C(O)c1cc2cc(NC(=O)[C@@H]3CCc4cc(-c5cc(Cl)ccc5-n5cnnn5)cc(=O)n43)ccc2[nH]1
